Experimental data as given in ChEMBL document CHEMBL4715696, “In vitro synergistic anticancer activity of the combination of T-type calcium channel blocker and chemotherapeutic agent in A549 cells” (Bioorg Med Chem Lett, 2016).

How the values were obtained:
[1] = system: A549; experiment: Decrease in cell cycle associated protein expression in human A549 cells assessed as reduction in CDK6 expression after 48 hrs by Western blot analysis; type: functional, cell-based; conditions: dose 2.5-10 µM
[2] = system: A549; experiment: Induction of cell cycle arrest in human A549 cells assessed as accumulation at G1 phase at 5 uM after 24 hrs by flow cytometric analysis (reference value: 53.1%); type: functional
[3] = system: A549; experiment: Induction of cell cycle arrest in human A549 cells assessed as accumulation at S phase at 5 uM after 24 hrs by flow cytometric analysis (reference value: 17.6%); type: functional
[4] = system: A549; experiment: Induction of cell cycle arrest in human A549 cells assessed as accumulation at sub G1 phase at 5 uM after 48 hrs by flow cytometric analysis (reference value: 1.9 to 4.9%); type: functional
[5] = system: A549; experiment: Induction of cell cycle arrest in human A549 cells assessed as accumulation at S phase at 5 uM after 48 hrs by flow cytometric analysis (reference value: 10.4 to 12%); type: functional
[6] = system: A549; experiment: Decrease in cell cycle associated protein expression in human A549 cells assessed as reduction in CDK2 expression after 48 hrs by Western blot analysis; type: functional, cell-based; conditions: dose 2.5-10 µM
[7] = system: A549; experiment: Decrease in cell cycle associated protein expression in human A549 cells assessed as fold change in CDK2 expression at 2.5 uM after 48 hrs by Western blot analysis (reference value: 0.48); type: functional
[8] = system: A549; experiment: Decrease in cell cycle associated protein expression in human A549 cells assessed as fold change in CDK2 expression at 5 uM after 48 hrs by Western blot analysis (reference value: 0.48); type: functional
[9] = system: A549; experiment: Decrease in cell cycle associated protein expression in human A549 cells assessed as reduction in CDK4 expression at 10 uM by Western blot analysis; type: functional, cell-based; conditions: time 6-48 hrs, TDE = time-dependent effect
[10] = system: A549; experiment: Decrease in cell cycle associated protein expression in human A549 cells assessed as fold change in CDK4 expression at 10 uM after 12 hrs by Western blot analysis (reference value: 0.87); type: functional
[11] = system: A549; experiment: Decrease in cell cycle associated protein expression in human A549 cells assessed as fold change in CDK4 expression at 10 uM after 24 hrs by Western blot analysis (reference value: 0.87); type: functional
[12] = system: A549; experiment: Decrease in cell cycle associated protein expression in human A549 cells assessed as fold change in CDK6 expression at 10 uM after 24 hrs by Western blot analysis (reference value: 0.7); type: functional
[13] = system: A549; experiment: Decrease in cell cycle associated protein expression in human A549 cells assessed as fold change in cyclin D1 expression at 2.5 uM after 48 hrs by Western blot analysis (reference value: 0.39); type: functional
[14] = system: A549; experiment: Decrease in cell cycle associated protein expression in human A549 cells assessed as fold change in cyclin D1 expression at 5 uM after 48 hrs by Western blot analysis (reference value: 0.39); type: functional
[15] = system: A549; experiment: Decrease in cell cycle associated protein expression in human A549 cells assessed as fold change in cyclin D1 expression at 10 uM after 12 hrs by Western blot analysis (reference value: 0.68); type: functional
[16] = system: A549; experiment: Decrease in cell cycle associated protein expression in human A549 cells assessed as fold change in cyclin D1 expression at 10 uM after 36 hrs by Western blot analysis (reference value: 0.68); type: functional
[17] = system: A549; experiment: Decrease in cell cycle associated protein expression in human A549 cells assessed as fold change in cyclin D2 expression at 2.5 uM after 48 hrs by Western blot analysis (reference value: 0.46); type: functional
[18] = system: A549; experiment: Decrease in cell cycle associated protein expression in human A549 cells assessed as reduction in cyclin D2 expression at 10 uM by Western blot analysis; type: functional, cell-based; conditions: time 6-48 hrs, TDE = time-dependent effect
[19] = system: A549; experiment: Decrease in cell cycle associated protein expression in human A549 cells assessed as fold change in cyclin D2 expression at 10 uM after 24 hrs by Western blot analysis (reference value: 0.77); type: functional
[20] = system: A549; experiment: Decrease in cell cycle associated protein expression in human A549 cells assessed as fold change in cyclin E expression at 10 uM after 48 hrs by Western blot analysis (reference value: 0.37 to 0.55); type: functional
[21] = system: A549; experiment: Decrease in cell cycle associated protein expression in human A549 cells assessed as fold change in cyclin E expression at 10 uM after 24 hrs by Western blot analysis (reference value: 0.55); type: functional
[22] = Upregulation of p27KIP1 protein expression in human A549 cells assessed as fold change in expression at 10 uM after 48 hrs by Western blot analysis (reference value: 0.48 to 0.83); type: functional
[23] = Metabolic stability in dog liver microsomes assessed as parent compound remaining at 1 uM measured for 30 mins; type: ADME, Canis lupus familiaris, Microsome; conditions: read-out: Stabilty
[24] = Metabolic stability in rat liver microsomes assessed as parent compound remaining at 1 uM measured for 30 mins; type: ADME, Microsome; conditions: read-out: Stabilty
[25] = biological target: CYP2C9 (Homo sapiens, UniProt P11712); experiment: Inhibition of human CYP2C9 assessed as residual activity at 10 uM measured after 15 mins relative to control; type: ADME; conditions: read-out: Activity
[26] = biological target: CYP2C19 (Homo sapiens, UniProt P33261); experiment: Inhibition of human CYP2C19 assessed as residual activity at 10 uM measured after 15 mins relative to control; type: ADME; conditions: read-out: Activity
[27] = biological target: CYP3A4 (Homo sapiens, UniProt P08684); experiment: Inhibition of human CYP3A4 assessed as residual activity at 10 uM measured after 15 mins relative to control; type: ADME; conditions: read-out: Activity
[28] = Protein binding in rat plasma at 10 uM after 4 hrs; type: ADME, cell-free; conditions: read-out: PPB (converted)
[29] = system: A549; experiment: Potentiation of etoposide-induced cell cycle arrest in human A549 cells assessed as accumulation at sub G1 phase at 10 uM in presence of etoposide after 48 hrs by flow cytometric analysis (Rvb =33 %); type: functional
[30] = system: A549; experiment: Induction of cell cycle arrest in human A549 cells assessed as accumulation at G2/M phase at 2.5 uM after 48 hrs by flow cytometric analysis (Rvb =22.1%); type: functional
[31] = system: A549; experiment: Potentiation of etoposide-induced cell cycle arrest in human A549 cells assessed as accumulation at G2/M phase at 5 uM in presence of etoposide after 48 hrs by flow cytometric analysis (Rvb =18.9%); type: functional
[32] = system: A549; experiment: Potentiation of etoposide-induced cell cycle arrest in human A549 cells assessed as accumulation at G2/M phase at 10 uM in presence of etoposide after 48 hrs by flow cytometric analysis (Rvb =18.9%); type: functional
[33] = system: A549; experiment: Potentiation of cisplatin-induced cell cycle arrest in human A549 cells assessed as accumulation at G2/M phase at 5 uM in presence of cisplatin after 48 hrs by flow cytometric analysis (Rvb =52.9%); type: functional
[34] = system: A549; experiment: Induction of cell cycle arrest in human A549 cells assessed as decrease in cell accumulation at G2/M phase after 48 hrs by flow cytometric analysis; type: functional, cell-based; conditions: dose 2.5-10 µM
[35] = system: A549; experiment: Induction of apoptosis in human A549 cells assessed as early apoptotic cells at 10 uM incubated for 48 hrs by AnnexinV-FITC/propidium iodide staining based flow cytometry (reference value: 1.2%); type: functional
[36] = system: A549; experiment: Induction of apoptosis in human A549 cells assessed as late apoptotic cells at 10 uM incubated for 48 hrs by AnnexinV-FITC/propidium iodide staining based flow cytometry (reference value: 4%); type: functional

CYP3A4, sequence (P08684 whole entry): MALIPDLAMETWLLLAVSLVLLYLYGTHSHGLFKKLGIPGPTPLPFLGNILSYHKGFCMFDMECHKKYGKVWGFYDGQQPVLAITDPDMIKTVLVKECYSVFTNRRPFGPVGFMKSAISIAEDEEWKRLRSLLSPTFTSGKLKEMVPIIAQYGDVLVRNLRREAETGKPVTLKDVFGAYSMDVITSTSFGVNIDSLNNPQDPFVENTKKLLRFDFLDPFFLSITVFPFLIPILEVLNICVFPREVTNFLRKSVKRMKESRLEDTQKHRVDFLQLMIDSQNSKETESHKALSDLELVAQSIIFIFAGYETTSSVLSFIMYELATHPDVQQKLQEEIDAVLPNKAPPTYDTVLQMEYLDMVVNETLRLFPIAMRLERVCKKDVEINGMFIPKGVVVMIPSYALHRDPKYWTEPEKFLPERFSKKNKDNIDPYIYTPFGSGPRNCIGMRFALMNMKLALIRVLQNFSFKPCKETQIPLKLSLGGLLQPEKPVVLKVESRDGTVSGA
CYP2C19, sequence (P33261 whole entry): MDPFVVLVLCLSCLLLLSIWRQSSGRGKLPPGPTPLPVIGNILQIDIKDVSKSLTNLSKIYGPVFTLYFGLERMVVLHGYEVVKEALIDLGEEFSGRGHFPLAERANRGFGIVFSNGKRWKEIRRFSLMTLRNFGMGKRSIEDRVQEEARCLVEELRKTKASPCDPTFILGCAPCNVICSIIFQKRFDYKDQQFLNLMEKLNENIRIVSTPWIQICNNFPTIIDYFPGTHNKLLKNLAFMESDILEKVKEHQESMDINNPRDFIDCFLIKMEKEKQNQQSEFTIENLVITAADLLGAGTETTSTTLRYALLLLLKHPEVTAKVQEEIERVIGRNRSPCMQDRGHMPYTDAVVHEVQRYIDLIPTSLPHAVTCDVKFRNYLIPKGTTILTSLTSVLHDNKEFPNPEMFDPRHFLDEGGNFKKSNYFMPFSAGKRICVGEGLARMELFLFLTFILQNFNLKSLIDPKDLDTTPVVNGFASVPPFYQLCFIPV
CYP2C9, sequence (P11712 whole entry): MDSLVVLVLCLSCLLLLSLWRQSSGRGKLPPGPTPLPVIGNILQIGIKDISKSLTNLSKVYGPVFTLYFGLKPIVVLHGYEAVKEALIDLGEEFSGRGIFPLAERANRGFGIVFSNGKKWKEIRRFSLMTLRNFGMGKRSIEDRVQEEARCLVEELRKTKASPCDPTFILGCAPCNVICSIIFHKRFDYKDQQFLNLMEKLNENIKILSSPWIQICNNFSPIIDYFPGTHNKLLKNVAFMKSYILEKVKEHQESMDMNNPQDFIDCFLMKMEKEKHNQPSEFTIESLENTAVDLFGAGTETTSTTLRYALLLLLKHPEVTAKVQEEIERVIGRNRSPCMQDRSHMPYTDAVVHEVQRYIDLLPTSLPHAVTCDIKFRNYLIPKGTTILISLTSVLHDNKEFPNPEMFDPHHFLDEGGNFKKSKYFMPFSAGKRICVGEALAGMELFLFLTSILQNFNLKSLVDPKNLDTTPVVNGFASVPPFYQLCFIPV

remaining at 0.5 h, 1 µM [23]: 92.6%
remaining at 0.5 h, 1 µM [24]: 62.6%
activity at 0.25 h, 10 µM [25]: 89.8%
activity at 0.25 h, 10 µM [26]: 55.8%
activity at 0.25 h, 10 µM [27]: 36.9%
fraction unbound at 4 h, 10 µM [28]: < 0.01
Compound: CN(C)C(=O)NCCCN(C)C1=Nc2ccccc2C(CC(=O)NCc2ccc(F)cc2)N1c1ccc(C2CCCCC2)cc1 (stereo unspecified)
Activity [1]: Dose-dependent effect
Activity [2]: 63.6%
Activity [3]: 12.4%
Activity [4]: 1%
Activity [5]: 8.3%
Activity [6]: Dose-dependent effect
fold change (FC) [7]: 0.47
fold change (FC) [8]: 0.46
Activity [9]: Tde
fold change (FC) [10]: 0.61
fold change (FC) [11]: 0.59
fold change (FC) [12]: 0.47
fold change (FC) [13]: 0.43
fold change (FC) [14]: 0.5
fold change (FC) [15]: 0.35
fold change (FC) [16]: 0.62
fold change (FC) [17]: 0.61
Activity [18]: Tde
fold change (FC) [19]: 0.43
fold change (FC) [20]: 0.01
fold change (FC) [21]: 0.08
fold change (FC) [22]: 0.93
Activity [29]: 83.1%
Activity [30]: 19.4%
Activity [31]: 13.4%
Activity [32]: 3.2%
Activity [33]: 33.9%
Activity [34]: Dose-dependent effect
Activity [35]: 8.8%
Activity [36]: 4.3%
